In patent publication US20140096284A1, “METHOD FOR THE DELIVERY OF MOLECULES LYOPHILIZED ONTO MICROPARTICLES TO PLANT TISSUES” (priority 2012, published 2014):

Experiments:
onion epidermis tissue [1] = assay: Biolistic delivery of molecules lyophilized onto 0.6 μm gold microcarriers to onion epidermis tissue; format: cell-based; conditions: lyophilized onto 0.6 μm gold, observed about 30 minutes after bombardment
Procedure: 2 μL of 0.6 μm gold particle stock was mixed with 1 μg of GFP plasmid pLMNC95 or 2 μL of a 400 ng/μL, TRITC-BSA solution. The mixture was poured on a macrocarrier, frozen in liquid nitrogen and freeze-dry for 1 hour prior to onion epidermis tissue bombardment.
Onion epidermis tissue was obtained from the scale leaves of white onion bulbs. Rectangular (3×2.5 cm) pieces were peeled right before the bombardment and placed in solid agar media (0.5 mM of 2-(N-morpholino)ethanesulfonic acid (MES), 15 g L^−1 Bacto agar (BD), pH 5.7) with the peeled side upwards. For quantitative measurements, epidermis pieces of the same scale leaf were distributed among treatments. Tobacco leaves (Nicotiana tabacum var. Petite Havana) were obtained from 3-6 week old in vitro grown plants on MS media (MS medium (Murashige and Skoog, 1962), 2% sucrose, 2.5 g L^−1 gelrite, pH 5.7). Leaves were cut right before bombardment and put with the adaxial surface up on agar media. Hill maize immature embryos were obtained from immature ears provided by the Center for Plant Transformation—Iowa State University. […]
Bright field and fluorescence images were taken using a Zeiss Axio star plus microscope. […] For the green channel fluorescence images a GFP BP filter (Chroma Technology Corp.) was used (λex=470 nm, beam splitter=495 nm and λem=525 nm). […]

onion epidermis tissue [2] = assay: Control: solution deposited or incubated on onion epidermis tissue without coated projectiles; format: cell-based; conditions: solution on the surface of onion epidermis tissue
Procedure: The dye bromophenol blue was used to test the ability of the system to deliver a chemical. As a control, a saturated solution of the dye (10 μL of a 100 μg μL^−1 mg) was deposited with a pipette on top of onion epidermis tissue. […] For the bromophenol blue delivery, the saturated solution was mixed with 0.6 μm gold microcarriers and an aliquot was deposited over a macrocarrier set. This macrocarrier set was frozen in liquid nitrogen for 5-10 minutes and then lyophilized for an hour using a lyophilizer. This macrocarrier set was subsequently used to bombard onion epidermis tissue. […] The amount of dye delivered to each cell was different, and as a consequence, different shades of purple could be observed in the bombarded tissue (FIG. 3C).
Protein delivery can be considered a difficult challenge because proteins could be subjected to denaturation during the delivery process. […] This protein will not fluoresce if denatured (Ward and Bokman, 1982). As a control, to test if the protein could be diffused into plant cells, 10 μL of a 100 ng/μL eGFP solution were incubated for 30 minutes on the surface of intact onion epidermis tissue or bombarded with bare 0.6 μm gold microparticles. […] Lyophilization of eGFP onto 0.6 μm gold microcarriers was done using 2.5 μL of 1 μg μL^−1 solution of the protein and 60 μg of microcarriers per shot.

tobacco leaf cells = assay: Biolistic delivery of molecules lyophilized onto 0.6 μm gold to tobacco leaf tissue; format: cell-based, Nicotiana tabacum var. Petite Havana; conditions: 250 μg per shot lyophilized onto 0.6 μm gold; tobacco leaves
Procedure: (§1) Onion epidermis tissue was obtained from the scale leaves of white onion bulbs. Rectangular (3×2.5 cm) pieces were peeled right before the bombardment and placed in solid agar media (0.5 mM of 2-(N-morpholino)ethanesulfonic acid (MES), 15 g L^−1 Bacto agar (BD), pH 5.7) with the peeled side upwards. For quantitative measurements, epidermis pieces of the same scale leaf were distributed among treatments. Tobacco leaves (Nicotiana tabacum var. Petite Havana) were obtained from 3-6 week old in vitro grown plants on MS media (MS medium (Murashige and Skoog, 1962), 2% sucrose, 2.5 g L^−1 gelrite, pH 5.7). Leaves were cut right before bombardment and put with the adaxial surface up on agar media. Hill maize immature embryos were obtained from immature ears provided by the Center for Plant Transformation—Iowa State University. Immature embryos (1-2 mm long) were cultured as previously described (Frame et al., 2000).
(§2) The saturated solutions of chemical or biomolecules used were done as follows (data per shot): for bromophenol blue (Sigma) delivery 10 μL of a 100 μg 1 μL^−1 mg solution were used. For plasmid DNA delivery, 2 μL of a 500 ng μL^−1 solution of the plasmid pLMNC95 (Luke Mankin and Thompson, 2001) were used for GFP expression. For mCherry expression linear dsDNA, the plasmid ER-rk (Nelson et al., 2007) was digested with the restriction enzymes SacI-HindIII. […]

maize immature embryos = assay: Biolistic delivery of molecules lyophilized onto 0.6 μm gold to maize immature embryos; format: cell-based; conditions: 250 μg per shot lyophilized onto 0.6 μm gold; maize Hi II immature embryo scutella
Procedure: as §1, §2

onion epidermis tissue [3] = assay: Fluorescein diacetate staining, count of dead cells after bombardment; format: cell-based; conditions: 250 μg per shot
Procedure: Onion epidermis tissues were submerged in 10 mL of MS liquid media to which 100 μL of a 5 mg mL^−1 of fluorescein diacetate (Alfa Aesar) solution in acetone were added. The samples were incubated for 2-5 minutes and directly observed under the green channel filter of the fluorescence microscope. For quantitative measurements, 12 images (10.5×8 mm) were taken with the 5× microscope objective scattered every 0.5 cm (4 columns×3 rows). The total amount of dead cells found on each image was counted.
The high concentration of protein used per shot (250 μg per shot) and the lyophilization process could cause cell death by: (1) physical damage of the potential clumps produced after lyophilizing protein and microparticles and (2) excess of intracellular protein delivery reaching toxic levels. To assess cellular death, onion epidermis tissues were stained with fluorescein diacetate, which stains in fluorescent green the living cells, while the dead ones remain dark (FIG. 7A). […]
As another example of active enzyme delivery, trypsin and RNAse A were chosen. […] The number of dead cells was measured using fluorescein diacetate staining in samples not bombarded, bombarded only with 0.6 μm gold or with 200 μg of trypsin or 40 μg of RNAse per shot. […]

O=S1(=O)OC(c2cc(Br)c(O)c(Br)c2)(c2cc(Br)c(O)c(Br)c2)c2ccccc21 [bromophenol blue, reference compound]
intracellular delivery after bombardment (onion epidermis tissue [1]): several cells were showing bluish-purple coloration
permeation or diffusion into cells without coated projectiles (onion epidermis tissue [2]): did not permeate

tetramethylrhodamine isothiocyanate labeled bovine serum albumin [TRITC-BSA]
intracellular delivery after bombardment (onion epidermis tissue [1]): successfully delivered
protein delivery (red fluorescence) (tobacco leaf cells): delivery could be observed
protein delivery (red fluorescence) (maize immature embryos): delivery could be observed
number of dead cells compared with bombardment without the protein (onion epidermis tissue [3]; 1 day after bombardment, differences were not significant): higher
viability of cells showing protein delivery (onion epidermis tissue [3]; stained 1 day after bombardment): most of the cells showing TRITC-BSA delivery were alive
